US20230248745A1, “SILVER ENHANCED CANNABINOID ANTIBIOTICS” (priority 2020, published 2023)
“Also recorded” adds a separate entry of the source. Where two headings read alike, the source gives them in different places.

How the values were obtained:
MRSA (strain USA300) [1] = assay: microbe, parasite or virus in culture; format: cell-based, Methicillin-resistant Staphylococcus aureus; settings: agent alone, silver expressed as silver
From the text: In therapeutic applications, synergy between active ingredients occurs when an observed combined therapeutic effect is greater than the sum of therapeutic effects of individual active ingredients, or a new therapeutic effect is produced that the active ingredients could not produce alone. […] In this context, the enhancement of therapeutic effect may take the form of increased efficacy or potency and/or decreased adverse effects. The synergistic effect may be mediated in whole or in part by the pharmacokinetics and/or pharmacodynamics of the active ingredients in a subject, so that the amount and proportion of the ingredients in the formulation may be synergistic in vivo. This in vivo synergy may be effected with a formulation that includes the active ingredients in amounts and proportions that are also synergistic in in vitro assays of efficacy. As used herein, the term “synergistically effective amounts” accordingly refers to amounts that are synergistic in vivo and/or in vitro. A numeric quantification of synergy is often expressed as a fractional inhibitory concentration index (FICI), which represents the sum of the fractional inhibitory concentrations (FICs) of each drug tested, where the FIC is determined for each drug by dividing the minimum inhibitory concentration (MIC, the lowest concentration of the drug which prevents visible growth of the bacterium in a standard in vitro assay—standard colorometric assay based on resazurin) of each drug when used in combination by the MIC of each drug when used alone. In very general terms, a FICI lower or higher than 1 indicates positively correlated activity (at least additive or potentiation) or an absence of positive interactions, respectively. […] (as described and used by Joung D K et al. and Rakoliya K et al.)
(§1) Cannabinoids or silver (expressed as the concentration of silver not the salt) were serially diluted 2-fold across the 96-well plate (Costar, catalog no. 3370) followed by addition of 100 μL of bacterial cultures with an OD600 of 0.0025. […] Wells turbidity were then analyzed using Varioskan™ microplate reader.

MRSA (strain USA300) [2] = assay: Kill-curve test (CFU over time); format: cell-based, Methicillin-resistant Staphylococcus aureus; settings: for MRSA growth by 24 hours: cannabinoid alone at ½×MIC
Protocol: (§2) Antibacterial growth was measured using a checkerboard analysis or qualitatively using agar plates with zones of inhibition. Viability was measured by the number of colony forming units (CFU) over time.
(§3) MRSA strain, USA300, was cultured in Luria-Bertani (LB) medium and inoculated at 37 C.
(§4) For each test tube, 1 mL of culture at OD600 of 0.005 was added to 1 mL of LB medium containing antibiotics to reach target sub-MIC concentrations of each compound. Samples of 100 μL was extracted from each tube at the determined time stamps followed by 10-fold serial dilutions. 10 μL of each dilution was then added on the LB agar plates that were subsequently incubated for 24 hours. Colonies were inspected and results quantified as log CFU/mL.

MRSA (USA300) = assay: Checkerboard assay, FICI of cannabinoid/silver combinations; format: cell-based, Methicillin-resistant Staphylococcus aureus
Protocol: as §2
(§5) Using checkerboard analysis, the fractional inhibitory concentration index (FICI) was calculated for the 96-well plate test to illustrate synergy.
as §3, §1
(§6) FICI was calculated in a checkerboard assay based on the turbidity of the wells. FIC of each agent was determined as the ratio of the minimal inhibitory concentration MIC of one agent in the presence of the other agent to the MIC of that agent alone. FICI was consequently computed as the sum of each agent's FIC.

E. coli strain K12 = assay: as above; format: cell-based, Escherichia coli; settings: for FICI Silver Nanoparticles: Silver Nanoparticles in combination with the cannabinoid; for FICI Silver Sulfate: Silver Sulfate in combination with the cannabinoid
Protocol: as §2, §5
(§7) Escherichia coli (E. coli), strain K12, was cultured in Luria-Bertani (LB) medium and inoculated at 37 C.
as §1, §6

E. coli (strain K12) = assay: Kill-curve test (CFU over time); format: cell-based, Escherichia coli; settings: for inhibitory effect on E. coli growth over 24 hours / inhibition of E. coli growth over 24 hours / inhibition of E. coli growth (summary): cannabinoid alone; for inhibitory effect on E. coli growth over 24 hours: 8 mg/L; for inhibition of E. coli growth over 24 hours: 16 mg/L; for inhibition of E. coli growth (summary): concentrations up to 16 mg/L
Protocol: as §2, §7, §4

MRSA (strain USA 300) = format: cell-based, Methicillin-resistant Staphylococcus aureus; settings: for inhibition of bacterial growth (ring): single agent at 2% w/w to PVA, films and coated catheter sections, 24 hours
Protocol: PVA films were made by solvent casting using 33 μl drops of 2.5% PVA (88% hydrolyzed, 125 KDa molecular weight) mixed with CBC, CBG or CBGA (2% w/w to PVA). […] 3 mm sections of a urethral catheter (BARDEX® BARD®) were cut and coated with the same 33 μl volume of PVA/Silver/cannabinoid used to make films. Films and coated catheter sections were dried overnight in the dark. Five cavities were created in the LB agar plates containing MRSA (strain USA 300) at OD600 of 0.005. PVA films and catheters coated with PVA films were then placed in the cavities and moistened with 20 μL of deionized distilled water. Plates were incubated for 24 hours at 37° C.

[3] = cannabinoid ½×MIC + AgNP ⅛×MIC (5 mg/L)
[4] = Silver Nitrate in combination with the cannabinoid
[5] = cannabinoid with silver nitrate
[6] = cannabinoid with silver sulfate
[7] = 8 mg/L cannabinoid + 2.5, 1.25 and 0.625 mg/L AgSO4 (each)
[8] = Staphylococcus aureus, read-out: MIC
[9] = cannabinoid with silver nanoparticles
[10] = cannabinoid ½×MIC + silver nitrate 1 mg/L
[11] = cannabinoid ½×MIC + silver nitrate 5 and 8 mg/L

| Structure (SMILES) | MIC (MRSA (strain USA300) [1]) [µg/mL] | kill-curve effect (CFU) (MRSA (strain USA300) [2]) | MRSA growth by 24 hours (MRSA (strain USA300) [2]) | kill-curve effect (CFU) (MRSA (strain USA300) [2]; [3]) | time of onset of bactericidal effect (MRSA (strain USA300) [2]; [3]) [h] | time through which bactericidal effect persisted (MRSA (strain USA300) [2]; [3]) [h] | FICI (MRSA (USA300); [4]) | interaction (interpretation of FICI) (MRSA (USA300); [5]) | FICI Silver Nanoparticles (E. coli strain K12) | FICI Silver Sulfate (E. coli strain K12) | interaction (interpretation of FICI) (E. coli strain K12; [6]) | time through which bacterial growth was inhibited (E. coli (strain K12)) [h] | time through which the effect persisted (E. coli (strain K12)) [h] | time to the reduction in E. coli CFU (E. coli (strain K12)) [h] | time through which E. coli growth was inhibited (E. coli (strain K12); [7]) [h] | time to the reduction in E. coli CFU (E. coli (strain K12); [7]) [h] | inhibitory effect on E. coli growth over 24 hours (E. coli (strain K12)) | inhibition of E. coli growth over 24 hours (E. coli (strain K12)) | inhibition of E. coli growth (summary) (E. coli (strain K12)) | MIC (MRSA (strain USA300) [1]; [8]) [µg/mL] | also measured |
| --- | --- | --- | --- | --- | --- | --- | --- | --- | --- | --- | --- | --- | --- | --- | --- | --- | --- | --- | --- | --- | --- |
| CCCCCc1cc2c(c(O)c1C(=O)O)C=CC(C)(CCC=C(C)C)O2 (centres unmarked) [CBCA, cannabichromenic acid] | 2 | greater bactericidal effect | returned to levels equal to that of 0×MIC treatment | rapid bactericidal effect | 2 | 24 | 2 | no improved antibiotic affect | 1.25 | 0.50 | synergistic | 24 | 24 | ≤ 4 | 24 | ≤ 6 | failed to achieve any inhibitory effect | failed to achieve any inhibition | fail to achieve any detectable inhibition |  | time of full elimination of CFU (MRSA (strain USA300) [2]; [3]): 4 h |
| C=C(C)[C@@H]1CCC(C)=C[C@H]1c1c(O)cc(CCCCC)cc1O [CBD, cannabidiol, reference compound] |  |  | returned to levels equal to that of 0×MIC treatment | rapid bactericidal effect | 2 |  | 2 | no improved antibiotic affect | 1.25 | 1 | not observed |  |  |  |  |  |  | no inhibition | fail to achieve any detectable inhibition | 2 | MRSA growth over 24 hours compared to cannabinoid alone (MRSA (strain USA300) [2]; [3]): substantive decrease; inhibition of E. coli growth over 24 hours by the combination (E. coli (strain K12); 16 mg/L cannabinoid + 2.5 mg/L AgSO4): did not result in a substantial inhibition; also recorded: no increase in antimicrobial activity |
| C=C(C)[C@@H]1CCC(C)=C[C@H]1c1c(O)cc(CCCCC)c(C(=O)O)c1O [CBDA, cannabidiolic acid] |  |  |  |  |  |  | 2 | no improved antibiotic affect | 0.73 | 0.52 | potentiation | 24 | 24 | ≤ 4 | 24 | ≤ 6 | failed to achieve any inhibitory effect | failed to achieve any inhibition | fail to achieve any detectable inhibition |  | interaction (interpretation of FICI) (E. coli strain K12; [9]): potentiation |
| CCCCCc1cc(O)c(C/C=C(\C)CCC=C(C)C)c(O)c1 [CBG, cannabigerol] |  | highly comparable bactericidal effect | returned to levels equal to that of 0×MIC treatment | rapid, full bactericidal effect | 2 | 24 | 0.625 | partially synergistic | 1.25 | 1 | not observed |  |  |  |  |  |  |  |  | 2 | time for which bactericidal effect persisted (MRSA (strain USA300) [2]): 24 h; kill-curve effect (CFU) (MRSA (strain USA300) [2]; cannabinoid ¼×MIC + silver nitrate 5 and 8 mg/L): perceptibly bactericidal; kill-curve effect (CFU) (MRSA (strain USA300) [2]; cannabinoid ½×MIC + AgNP 1/160×MIC (0.25 mg/L)): bactericidal effect which was greater than that seen with ½×MIC CBG alone; kill-curve effect (CFU) (MRSA (strain USA300) [2]; [10]): bactericidal effect; time for which bactericidal effect remained (MRSA (strain USA300) [2]; [10]): up to 6 hours; time of onset of bactericidal effect (MRSA (strain USA300) [2]; [10]): 2 h; kill-curve effect (CFU) (MRSA (strain USA300) [2]; [11]): fully bactericidal effect; time of onset of bactericidal effect (MRSA (strain USA300) [2]; [11]): 2 h; time through which bactericidal effect remained (MRSA (strain USA300) [2]; [11]): 24 h; FICI (MRSA (USA300); Silver Nanoparticles in combination with the cannabinoid): 0.625; interaction (interpretation of FICI) (MRSA (USA300); [9]): partial synergy; antibiotic effect of combination compared with silver nanoparticles alone (MRSA (strain USA 300)): increased antibiotic effect; inhibition of bacterial growth (ring) (MRSA (strain USA 300)): some level of inhibition |
| O=[N+]([O-])[O-].[Ag+] [silver nitrate, reference compound] | 16 |  |  |  |  |  |  |  |  |  |  |  |  |  |  |  |  |  |  |  | bacterial growth at 24 hours (MRSA (strain USA300) [2]; silver nitrate alone, 1 mg/L): full bacterial growth had occurred; duration of bacterial growth inhibition (MRSA (strain USA300) [2]; silver nitrate alone, 5 mg/L): 4 h; duration of bacterial growth inhibition (MRSA (strain USA300) [2]; silver nitrate alone, 8 mg/L): 6 h; inhibition of bacterial growth (ring) (MRSA (strain USA 300)): some level of inhibition; inhibition of bacterial growth (ring) (MRSA (strain USA 300); listed as Silver nitrate): strong inhibition |
